Results reported in patent publication EP0726072A2, “Composition for the treatment of hypertension and congestive heart failure, containing an angiotensin II antagonist and an endopeptidase inhibitor” (BRISTOL-MYERS SQUIBB COMPANY, priority 1995, dated 1996).

System: 1K1C hypertensive dogs
Experiment: Haemodynamic, renal and hormonal effects in conscious 1-kidney-1-clip hypertensive dogs
Type: in vivo
Method: The studies described in this experiment were conducted in dogs that had been rendered hypertensive by prior unilateral nephrectomy and constriction of the remaining renal artery. This model is characterized by normal basal levels of plasma renin activity and is relatively resistant to the anti-hypertensive activity of angiotensin converting enzyme inhibitors and AT1 receptor antagonists.
The following experiments were conducted in fasted 1K1C hypertensive dogs lightly restrained in standard canine slings. An indwelling arterial catheter was accessed via a subcutaneous port for measurement of blood pressure via a Gould-Statham pressure transducer. Mean arterial pressure (MAP) was continuously recorded on a Gould chart writer and stored electronically using a Po-Ne-Mah data acquisition system. During each study, urine was collected at 20 minute intervals via a Foley bladder catheter for determination of urine volume. The concentrations of urinary sodium and potassium were measured using ion-selective electrodes and their rates of urinary excretion (µEq/min) were calculated. Glomerular filtration rate (GFR) and effective renal plasma flow (ERPF) were determined by the renal clearances of exogenous creatinine and para-aminohippuric acid (PAH), respectively. The concentrations of creatinine and PAH in sequential samples of urine and plasma were determined by spectrophotometric assays and the clearances were calculated by the standard formula.
Arterial blood samples were drawn at the end of the control period and at 60 minute intervals thereafter for determination of the plasma concentrations of atrial natriuretic peptide (ANP), cyclic GMP and plasma renin activity (PRA) by separate radioimmunoassays. The plasma and urine samples were preserved and the assays were conducted according to standard radioimmunoassay procedures. Urinary excretion rates of cyclic GMP and ANP were calculated and expressed as pmol/min and fmol/min, respectively.
In each study, baseline measurements were obtained during two 20 minute control periods. One of the treatments was then administered and sampling continued at 20 minute intervals for three hours.
To minimize inter-animal variability, each data point was expressed as the change from the average control value for that parameter. Significant differences among treatments were identified by analysis of variance for repeated measures. […] Results are given as mean ± SEM.

[1] = 20 min after treatment, 30 µmol/kg iv of each agent
[2] = 40 min after treatment, 30 µmol/kg iv of each agent
[3] = 60 min after treatment, 30 µmol/kg iv of each agent
[4] = 80 min after treatment, 30 µmol/kg iv of each agent
[5] = 100 min after treatment, 30 µmol/kg iv of each agent
[6] = 120 min after treatment, 30 µmol/kg iv of each agent
[7] = 140 min after treatment, 30 µmol/kg iv of each agent
[8] = 160 min after treatment, 30 µmol/kg iv of each agent
[9] = 180 min after treatment, 30 µmol/kg iv of each agent

## O=C(O)CCNC(=O)C(CS)Cc1ccccc1 (racemic) [SQ 28603, (±)-N-[2-(mercaptomethyl)-1-oxo-3-phenylpropyl]-β-alanine]
30 µmol/kg iv of each agent, cumulative over 3 hours
  increase in the amount of sodium excreted during the 3 hours after injection: 5.2±2.3 mEq/3 hr
30 µmol/kg iv of each agent, not statistically significant compared to vehicle
  Cyclic GMP excretion, change over 3 hr: +32±28 nmol/3 hr
[1]
  ANP Excretion, Change from control: 20.8 ± 4.9 fmol/min
  Cyclic GMP Excretion, Change from control: 106 ± 295 pmol/min
  Effective Renal Plasma Flow, Change from control: 6 ± 38 mL/min
  Glomerular Filtration Rate, Change from control: 6 ± 11 mL/min
  Mean Arterial Pressure, Change from control: 6±1 mm Hg
  Sodium Excretion, Change from control: 13±4 µEq/min
  Urine Volume, Change from control: 0.29 ± 0.31 mL/min
[2]
  ANP Excretion, Change from control: 24.0 ± 4.6 fmol/min
  Cyclic GMP Excretion, Change from control: 101 ± 280 pmol/min
  Effective Renal Plasma Flow, Change from control: -5 ± 15 mL/min
  Glomerular Filtration Rate, Change from control: 3 ± 2 mL/min
  Mean Arterial Pressure, Change from control: 9±3 mm Hg
  Sodium Excretion, Change from control: 21±16 µEq/min
  Urine Volume, Change from control: 0.15 ± 0.13 mL/min
[3]
  ANP Excretion, Change from control: 45.2 ± 24.2 fmol/min
  Cyclic GMP Excretion, Change from control: 338 ± 206 pmol/min
  Effective Renal Plasma Flow, Change from control: 3 ± 20 mL/min
  Glomerular Filtration Rate, Change from control: 6 ± 5 mL/min
  Mean Arterial Pressure, Change from control: 8±3 mm Hg
  Plasma Renin Activity, Change from control: -0.07±0.05 pmol AI/ml/hr
  Sodium Excretion, Change from control: 14±9 µEq/min
  Urine Volume, Change from control: 0.18 ± 0.14 mL/min
[4]
  ANP Excretion, Change from control: 55.5 ± 19.7 fmol/min
  Cyclic GMP Excretion, Change from control: 226 ± 154 pmol/min
  Effective Renal Plasma Flow, Change from control: -20 ± 6 mL/min
  Glomerular Filtration Rate, Change from control: 5 ± 2 mL/min
  Mean Arterial Pressure, Change from control: 8±2 mm Hg
  Sodium Excretion, Change from control: 25±13 µEq/min
  Urine Volume, Change from control: 0.21 ± 0.15 mL/min
[5]
  ANP Excretion, Change from control: 41.0 ± 12.3 fmol/min
  Cyclic GMP Excretion, Change from control: 128 ± 178 pmol/min
  Effective Renal Plasma Flow, Change from control: -25 ± 10 mL/min
  Glomerular Filtration Rate, Change from control: 5 ± 4 mL/min
  Mean Arterial Pressure, Change from control: 5±3 mm Hg
  Sodium Excretion, Change from control: 24±12 µEq/min
  Urine Volume, Change from control: 0.07 ± 0.08 mL/min
[6]
  ANP Excretion, Change from control: 48.3 ± 21.5 fmol/min
  Cyclic GMP Excretion, Change from control: 117 ± 220 pmol/min
  Effective Renal Plasma Flow, Change from control: -15 ± 6 mL/min
  Glomerular Filtration Rate, Change from control: 5 ± 1 mL/min
  Mean Arterial Pressure, Change from control: 3±4 mm Hg
  Plasma Renin Activity, Change from control: -0.02±0.05 pmol AI/ml/hr
  Sodium Excretion, Change from control: 35±19 µEq/min
  Urine Volume, Change from control: 0.12 ± 0.13 mL/min
[7]
  ANP Excretion, Change from control: 41.8 ± 14.2 fmol/min
  Cyclic GMP Excretion, Change from control: 121 ± 182 pmol/min
  Effective Renal Plasma Flow, Change from control: -11 ± 12 mL/min
  Glomerular Filtration Rate, Change from control: 7 ± 4 mL/min
  Mean Arterial Pressure, Change from control: 4±2 mm Hg
  Sodium Excretion, Change from control: 39±18 µEq/min
  Urine Volume, Change from control: 0.20 ± 0.10 mL/min
[8]
  ANP Excretion, Change from control: 36.9 ± 12.4 fmol/min
  Cyclic GMP Excretion, Change from control: 100 ± 246 pmol/min
  Effective Renal Plasma Flow, Change from control: -1 ± 12 mL/min
  Glomerular Filtration Rate, Change from control: 9 ± 5 mL/min
  Mean Arterial Pressure, Change from control: 5±2 mm Hg
  Sodium Excretion, Change from control: 44±19 µEq/min
  Urine Volume, Change from control: 0.24 ± 0.11 mL/min
[9]
  ANP Excretion, Change from control: 29.0 ± 7.9 fmol/min
  Cyclic GMP Excretion, Change from control: 343 ± 170 pmol/min
  Effective Renal Plasma Flow, Change from control: -4 ± 9 mL/min
  Glomerular Filtration Rate, Change from control: 10 ± 4 mL/min
  Mean Arterial Pressure, Change from control: 7±3 mm Hg
  Plasma Renin Activity, Change from control: -0.01±0.7 pmol AI/ml/hr
  Sodium Excretion, Change from control: 44±18 µEq/min
  Urine Volume, Change from control: 0.17 ± 0.06 mL/min
Control, before treatment
  ANP Excretion: 1.9 ± 0.2 fmol/min
  Cyclic GMP Excretion: 1017 ± 180 pmol/min
  Effective Renal Plasma Flow: 123 ± 15 mL/min
  Glomerular Filtration Rate: 39 ± 5 mL/min
  Mean Arterial Pressure: 132±8 mm Hg
  Plasma Renin Activity: 0.16±0.02 pmol AI/ml/hr
  Sodium Excretion: 40±20 µEq/min
  Urine Volume: 0.38 ± 0.13 mL/min
Summary of TABLE 2, 30 µmol/kg iv of each agent, 3 hours
  sodium excretion, effect in words: increased
Summary of TABLE 3, 30 µmol/kg iv of each agent, 3 hours
  urine volume, effect in words: increased
Summary of TABLE 6, 30 µmol/kg iv of each agent
  Urinary excretion of ANP, effect in words: increased significantly
Summary of Table 1, 30 µmol/kg iv of each agent, 3 hours
  mean arterial pressure (MAP), effect in words: initially increased
